The target of the assay is T1, serotonin 5-HT6 receptor subtype (Homo sapiens, UniProt P50406).
T1 construct: host or cells: CHO-Dukx-A2 cells, clone 50-7
Put plainly: 5-HT6 binding affinity ([3H]-LSD SPA binding). The conditions noted are these: read-out: 5-HT6 binding Ki.

T1 sequence (P50406 whole entry): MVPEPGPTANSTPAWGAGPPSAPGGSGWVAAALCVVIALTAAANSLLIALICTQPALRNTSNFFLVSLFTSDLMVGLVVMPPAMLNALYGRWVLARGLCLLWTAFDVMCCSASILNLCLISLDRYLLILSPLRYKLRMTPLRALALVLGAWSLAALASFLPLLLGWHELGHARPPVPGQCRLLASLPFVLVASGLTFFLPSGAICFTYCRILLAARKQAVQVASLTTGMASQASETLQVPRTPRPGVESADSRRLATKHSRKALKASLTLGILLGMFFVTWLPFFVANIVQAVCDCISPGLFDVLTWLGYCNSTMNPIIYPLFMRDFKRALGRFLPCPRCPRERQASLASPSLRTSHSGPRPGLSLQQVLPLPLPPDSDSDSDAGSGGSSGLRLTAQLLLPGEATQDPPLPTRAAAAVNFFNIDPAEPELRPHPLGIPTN

For the compound `Cc1nc2c(N3CCN[C@H](C)C3)cccc2n1S(=O)(=O)c1cccc2c(Cl)cccc12` [Example 127, 1-[(5-chloro-1-naphthyl)sulfonyl]-2-methyl-4-[(3R)-3-methylpiperazin-1-yl]-1H-benzimidazole], the Ki (in general, the dissociation constant of the complex between target and ligand, obtained from inhibition or displacement) worked out at 8.38 nM. To `CC1CN(c2cccc3c2ncn3S(=O)(=O)c2ccccc2)CCN1` (stereo not drawn) [Example 128, 4-(3-methylpiperazin-1-yl)-1-(phenylsulfonyl)-1H-benzimidazole] belongs 0.931 nM.

As for `CC1CN(c2cccc3c2ncn3S(=O)(=O)c2cccc3ccccc23)CCN1` (stereo not drawn) [Example 129, 4-(3-methylpiperazin-1-yl)-1-(1-naphthylsulfonyl)-1H-benzimidazole], the inhibition constant (Ki) worked out at 0.051 nM.

The values are drawn from US8063053B2, “1-(arylsulfonyl)-4-(piperazin-1-yl)-1H-benzimidazoles as 5-hydroxytryptamine-6 ligands” (Wyeth LLC, priority 2008, dated 2011).
